Measured values from article PMC6437697 (Journal of Medicinal Chemistry, 2019).

Legend:
Experiment in all cases: KINOMEscan
Assay type in all cases: binding
Details in all cases: read-out: % control activity remaining
[1] = biological target: T1, NEK4 (Homo sapiens, UniProt P51957)
T1 construct: purchased Eurofins DiscoverX KINOMEscan

[2] = biological target: T2, DAPK1 (Homo sapiens, UniProt P53355)
T2 construct: purchased Eurofins DiscoverX KINOMEscan

[3] = biological target: T3, ASK1 (Homo sapiens, UniProt Q99683)
T3 construct: purchased Eurofins DiscoverX KINOMEscan
T3 sequence (Q99683 1-1374): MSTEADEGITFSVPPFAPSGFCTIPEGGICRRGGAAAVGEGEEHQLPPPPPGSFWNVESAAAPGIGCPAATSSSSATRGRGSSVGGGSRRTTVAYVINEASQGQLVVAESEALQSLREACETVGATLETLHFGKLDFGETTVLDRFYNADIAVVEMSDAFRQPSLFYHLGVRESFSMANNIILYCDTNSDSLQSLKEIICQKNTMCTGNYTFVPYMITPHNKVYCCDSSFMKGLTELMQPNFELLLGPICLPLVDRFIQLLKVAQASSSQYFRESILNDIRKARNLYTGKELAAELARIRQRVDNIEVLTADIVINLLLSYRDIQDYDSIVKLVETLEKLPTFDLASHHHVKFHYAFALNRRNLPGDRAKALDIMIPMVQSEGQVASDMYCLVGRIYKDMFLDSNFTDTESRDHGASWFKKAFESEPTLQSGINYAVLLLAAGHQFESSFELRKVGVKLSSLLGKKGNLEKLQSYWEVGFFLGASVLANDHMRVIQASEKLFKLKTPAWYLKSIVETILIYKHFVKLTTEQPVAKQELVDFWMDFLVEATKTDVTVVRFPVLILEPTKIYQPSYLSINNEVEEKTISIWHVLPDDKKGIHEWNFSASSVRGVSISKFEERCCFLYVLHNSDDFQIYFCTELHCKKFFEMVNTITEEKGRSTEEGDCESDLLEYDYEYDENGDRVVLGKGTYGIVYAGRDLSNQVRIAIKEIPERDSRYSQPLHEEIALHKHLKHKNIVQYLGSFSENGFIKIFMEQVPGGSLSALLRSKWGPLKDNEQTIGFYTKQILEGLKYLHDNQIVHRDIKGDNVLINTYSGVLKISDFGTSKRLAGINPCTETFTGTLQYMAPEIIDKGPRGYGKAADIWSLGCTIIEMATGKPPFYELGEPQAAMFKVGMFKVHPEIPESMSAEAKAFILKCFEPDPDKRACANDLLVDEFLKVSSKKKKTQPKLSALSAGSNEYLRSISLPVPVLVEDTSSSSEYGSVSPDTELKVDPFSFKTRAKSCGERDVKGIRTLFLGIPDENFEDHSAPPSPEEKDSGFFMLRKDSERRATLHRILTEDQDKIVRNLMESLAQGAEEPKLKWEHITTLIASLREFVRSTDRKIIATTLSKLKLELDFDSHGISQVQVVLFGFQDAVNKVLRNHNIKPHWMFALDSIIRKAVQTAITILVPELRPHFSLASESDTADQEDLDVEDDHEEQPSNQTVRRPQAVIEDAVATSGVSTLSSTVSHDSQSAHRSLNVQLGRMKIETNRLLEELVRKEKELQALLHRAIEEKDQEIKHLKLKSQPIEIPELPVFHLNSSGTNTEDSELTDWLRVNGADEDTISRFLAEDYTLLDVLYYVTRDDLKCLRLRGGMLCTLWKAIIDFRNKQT

[4] = biological target: T4, ROS1 (Homo sapiens, UniProt P08922)
T4 construct: purchased Eurofins DiscoverX KINOMEscan

[5] = biological target: T5, GRK4 (Homo sapiens, UniProt P32298)
T5 construct: purchased Eurofins DiscoverX KINOMEscan

[6] = biological target: T6, PIK3C2G (Homo sapiens, UniProt O75747)
T6 construct: purchased Eurofins DiscoverX KINOMEscan
T6 sequence (O75747 1-1486): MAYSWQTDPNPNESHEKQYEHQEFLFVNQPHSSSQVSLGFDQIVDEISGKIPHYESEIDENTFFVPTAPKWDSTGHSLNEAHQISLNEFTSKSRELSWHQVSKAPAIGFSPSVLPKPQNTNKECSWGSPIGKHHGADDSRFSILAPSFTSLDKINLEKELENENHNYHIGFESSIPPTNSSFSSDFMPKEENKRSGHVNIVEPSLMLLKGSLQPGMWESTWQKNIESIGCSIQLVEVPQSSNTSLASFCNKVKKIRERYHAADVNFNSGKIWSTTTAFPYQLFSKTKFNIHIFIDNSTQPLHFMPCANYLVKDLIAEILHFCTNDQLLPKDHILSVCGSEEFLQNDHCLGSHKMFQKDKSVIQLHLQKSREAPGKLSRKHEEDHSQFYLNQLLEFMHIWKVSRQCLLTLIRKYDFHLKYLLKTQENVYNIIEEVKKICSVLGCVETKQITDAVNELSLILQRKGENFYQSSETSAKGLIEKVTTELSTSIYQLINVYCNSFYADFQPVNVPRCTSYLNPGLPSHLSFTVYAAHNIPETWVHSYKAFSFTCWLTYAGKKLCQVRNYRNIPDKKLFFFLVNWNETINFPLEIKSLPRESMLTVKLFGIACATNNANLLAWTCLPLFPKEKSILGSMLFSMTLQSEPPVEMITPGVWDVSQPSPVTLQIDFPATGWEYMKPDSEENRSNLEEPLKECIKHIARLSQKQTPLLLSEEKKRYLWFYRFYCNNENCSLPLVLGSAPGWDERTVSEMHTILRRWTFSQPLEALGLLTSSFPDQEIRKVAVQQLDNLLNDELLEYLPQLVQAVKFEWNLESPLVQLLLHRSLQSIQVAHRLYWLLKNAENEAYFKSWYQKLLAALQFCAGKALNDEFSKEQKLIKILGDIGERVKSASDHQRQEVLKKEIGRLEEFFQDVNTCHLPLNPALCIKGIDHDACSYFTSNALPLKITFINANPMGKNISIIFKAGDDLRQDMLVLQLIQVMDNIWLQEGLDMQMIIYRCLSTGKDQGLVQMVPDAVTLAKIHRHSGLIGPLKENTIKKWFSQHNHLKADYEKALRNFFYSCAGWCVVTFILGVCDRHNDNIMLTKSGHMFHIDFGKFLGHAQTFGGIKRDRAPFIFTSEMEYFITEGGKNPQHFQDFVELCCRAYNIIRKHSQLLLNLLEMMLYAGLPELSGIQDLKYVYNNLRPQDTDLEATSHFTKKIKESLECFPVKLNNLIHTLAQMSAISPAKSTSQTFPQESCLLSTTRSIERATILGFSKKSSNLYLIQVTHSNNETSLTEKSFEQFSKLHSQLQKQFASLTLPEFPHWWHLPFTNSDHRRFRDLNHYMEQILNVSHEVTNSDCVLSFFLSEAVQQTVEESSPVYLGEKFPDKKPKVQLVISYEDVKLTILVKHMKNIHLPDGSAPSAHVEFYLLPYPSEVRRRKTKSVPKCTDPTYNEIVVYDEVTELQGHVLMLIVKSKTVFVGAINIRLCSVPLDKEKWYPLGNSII

T1 sequence (P51957 whole entry): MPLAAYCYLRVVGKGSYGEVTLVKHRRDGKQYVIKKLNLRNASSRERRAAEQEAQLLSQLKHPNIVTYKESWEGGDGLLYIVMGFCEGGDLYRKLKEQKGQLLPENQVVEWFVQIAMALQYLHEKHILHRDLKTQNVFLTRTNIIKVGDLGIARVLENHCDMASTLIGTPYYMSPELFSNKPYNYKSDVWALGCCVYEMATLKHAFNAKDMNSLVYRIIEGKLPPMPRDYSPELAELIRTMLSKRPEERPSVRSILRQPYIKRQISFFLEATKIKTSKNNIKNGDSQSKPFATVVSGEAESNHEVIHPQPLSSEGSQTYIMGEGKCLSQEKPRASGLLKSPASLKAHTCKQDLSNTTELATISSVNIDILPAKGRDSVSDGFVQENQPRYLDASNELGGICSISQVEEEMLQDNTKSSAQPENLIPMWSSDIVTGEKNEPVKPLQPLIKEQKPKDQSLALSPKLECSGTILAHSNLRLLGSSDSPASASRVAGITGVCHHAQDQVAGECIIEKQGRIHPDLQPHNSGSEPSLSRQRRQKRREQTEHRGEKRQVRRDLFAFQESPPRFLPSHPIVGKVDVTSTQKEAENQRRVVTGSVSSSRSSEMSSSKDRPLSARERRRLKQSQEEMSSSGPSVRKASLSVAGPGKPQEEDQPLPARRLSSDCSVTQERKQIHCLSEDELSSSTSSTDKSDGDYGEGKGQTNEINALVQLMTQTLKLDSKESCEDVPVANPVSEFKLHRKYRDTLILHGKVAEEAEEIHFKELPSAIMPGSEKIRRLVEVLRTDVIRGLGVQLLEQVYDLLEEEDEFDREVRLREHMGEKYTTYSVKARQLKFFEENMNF
T2 sequence (P53355 whole entry): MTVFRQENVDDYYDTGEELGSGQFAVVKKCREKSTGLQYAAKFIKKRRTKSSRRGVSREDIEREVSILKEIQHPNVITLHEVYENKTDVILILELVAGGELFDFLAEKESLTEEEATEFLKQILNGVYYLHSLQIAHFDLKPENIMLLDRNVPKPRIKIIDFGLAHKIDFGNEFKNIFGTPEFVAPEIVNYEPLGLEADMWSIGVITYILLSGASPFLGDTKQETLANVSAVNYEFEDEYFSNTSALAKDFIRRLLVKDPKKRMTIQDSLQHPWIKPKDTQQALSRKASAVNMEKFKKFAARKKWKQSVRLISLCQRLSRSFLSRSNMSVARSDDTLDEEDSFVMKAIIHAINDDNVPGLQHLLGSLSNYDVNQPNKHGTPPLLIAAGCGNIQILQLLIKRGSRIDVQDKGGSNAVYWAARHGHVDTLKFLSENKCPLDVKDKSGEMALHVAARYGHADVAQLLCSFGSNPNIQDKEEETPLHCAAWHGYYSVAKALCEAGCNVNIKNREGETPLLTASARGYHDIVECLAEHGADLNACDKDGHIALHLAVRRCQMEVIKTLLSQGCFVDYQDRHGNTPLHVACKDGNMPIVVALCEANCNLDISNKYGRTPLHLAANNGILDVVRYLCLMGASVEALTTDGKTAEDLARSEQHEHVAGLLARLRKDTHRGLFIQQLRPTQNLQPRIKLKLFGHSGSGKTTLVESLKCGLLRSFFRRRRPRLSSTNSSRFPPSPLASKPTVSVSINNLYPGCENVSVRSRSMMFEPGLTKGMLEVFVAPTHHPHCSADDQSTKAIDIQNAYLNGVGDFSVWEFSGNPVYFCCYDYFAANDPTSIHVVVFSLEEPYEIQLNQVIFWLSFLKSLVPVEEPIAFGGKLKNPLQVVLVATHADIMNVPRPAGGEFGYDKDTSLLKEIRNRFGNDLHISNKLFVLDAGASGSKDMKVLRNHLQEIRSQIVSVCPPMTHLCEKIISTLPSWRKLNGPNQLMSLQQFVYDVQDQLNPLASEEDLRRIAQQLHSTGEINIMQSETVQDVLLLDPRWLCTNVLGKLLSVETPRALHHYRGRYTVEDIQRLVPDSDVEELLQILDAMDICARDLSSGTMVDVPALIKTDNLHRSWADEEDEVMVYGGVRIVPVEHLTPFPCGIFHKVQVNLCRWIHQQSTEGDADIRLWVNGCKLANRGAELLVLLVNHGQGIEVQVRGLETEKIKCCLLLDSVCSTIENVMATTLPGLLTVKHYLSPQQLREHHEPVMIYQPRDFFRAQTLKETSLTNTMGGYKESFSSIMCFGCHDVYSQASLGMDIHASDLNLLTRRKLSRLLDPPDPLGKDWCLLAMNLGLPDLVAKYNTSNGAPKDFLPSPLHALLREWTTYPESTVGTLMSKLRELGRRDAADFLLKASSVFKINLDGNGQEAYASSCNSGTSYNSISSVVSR
T5 sequence (P32298 whole entry): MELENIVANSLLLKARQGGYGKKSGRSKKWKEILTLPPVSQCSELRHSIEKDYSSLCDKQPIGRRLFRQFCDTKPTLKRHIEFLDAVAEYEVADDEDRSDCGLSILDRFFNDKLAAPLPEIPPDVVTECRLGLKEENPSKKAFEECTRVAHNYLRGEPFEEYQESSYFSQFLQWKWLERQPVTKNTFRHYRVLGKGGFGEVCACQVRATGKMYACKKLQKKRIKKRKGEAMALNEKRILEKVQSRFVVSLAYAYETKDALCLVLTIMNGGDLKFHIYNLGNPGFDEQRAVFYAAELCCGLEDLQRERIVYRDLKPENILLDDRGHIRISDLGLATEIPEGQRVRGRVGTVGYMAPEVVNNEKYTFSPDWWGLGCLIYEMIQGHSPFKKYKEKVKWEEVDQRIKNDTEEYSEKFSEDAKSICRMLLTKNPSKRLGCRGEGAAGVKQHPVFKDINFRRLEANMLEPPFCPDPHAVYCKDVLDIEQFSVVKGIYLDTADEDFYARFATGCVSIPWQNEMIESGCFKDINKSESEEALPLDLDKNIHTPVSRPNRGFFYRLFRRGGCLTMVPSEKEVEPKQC

Row | Structure (SMILES) | remaining binding at 1 µM [1] | remaining binding at 1 µM [2] | remaining binding at 1 µM [3] | remaining binding at 1 µM [4] | remaining binding at 1 µM [5] | remaining binding at 1 µM [6]
1 | Clc1cc(NCC2CC2)c2ncc(-c3ccc4[nH]ncc4c3)n2n1 [compound 2, 6-Chloro-N-(cyclopropylmethyl)-3-(1H-indazol-5-yl)imidazo[1,2-b]pyridazin-8-amine] | 99% | 98% | 70% | 100% | 42% | 91%
2 | O=C(CN1CCOCC1)N[C@H]1CC[C@H](Nc2cc(Cl)nn3c(-c4ccc5[nH]ncc5c4)cnc23)CC1 [compound 26] | 100% | 66% | 100% | 100% | 79% | 80%
3 | CN1CCC(CNc2cc(Cl)nn3c(-c4cc5nc(Nc6ccccc6)[nH]c5cc4F)cnc23)CC1 [compound 31, 6-Chloro-3-(6-fluoro-2-(phenylamino)-1H-benzo[d]imidazol-5-yl)-N-((1-methylpiperidin-4-yl)methyl)imidazo[1,2-b]pyridazin-8-amine] | 95% | 99% | 100% | 96% | 100% | 82%
